Laboratory results published in US6683103B2, “Sulfonamides for treatment of endothelin-mediated disorders” (Texas Biotechnology Corporation, priority 1997, dated 2004).
Where two headings read alike, the source gives them in different places. Marks after values point to notes of the source that are not given here. One block for each compound: values may come before it.

Assays:
human ETA receptors = target: T1, human ETA receptors (Homo sapiens, UniProt P25101); assay: Binding Test #1: inhibition of 125I-ET-1 binding to ETA receptors (TE 671 cell membranes); details: for IC50: read-out: ETA
T1 construct: endogenous in cells; host or cells: TE 671 cells (ATCC HTB 139)
T1 sequence (P25101 21-427): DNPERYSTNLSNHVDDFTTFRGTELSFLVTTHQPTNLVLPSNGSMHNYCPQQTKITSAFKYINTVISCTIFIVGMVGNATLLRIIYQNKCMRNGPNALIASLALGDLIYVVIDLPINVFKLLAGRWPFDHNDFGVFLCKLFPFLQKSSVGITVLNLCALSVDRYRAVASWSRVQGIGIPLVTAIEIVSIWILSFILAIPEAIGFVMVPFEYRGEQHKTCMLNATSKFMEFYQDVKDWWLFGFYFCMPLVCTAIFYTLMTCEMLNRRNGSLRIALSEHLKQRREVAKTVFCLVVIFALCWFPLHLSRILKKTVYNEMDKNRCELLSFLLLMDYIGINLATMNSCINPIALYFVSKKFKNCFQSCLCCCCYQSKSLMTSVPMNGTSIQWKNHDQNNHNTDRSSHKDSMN
Procedure, shortened: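 Membranes from TE 671 cells (up to 8 μg protein) incubated with ¹²⁵I-ET-1 and compound (1 nM–100 μM final) in 30 mM HEPES pH 7.4, 150 mM NaCl, 5 mM MgCl2, 0.5% bacitracin, 16–18 h at 4 °C or alternatively at 24 °C. Nonspecific binding with 80 nM ET-1; bound pellet gamma-counted, % inhibition calculated, usually triplicate.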

[1] = tested on: Pulmonary Hypertension model; assay: Pulmonary hypertension model, in vivo efficacy; design: species or system rat; key to in vivo Efficacy: ++ effective at 5 mg/kg; − no effect at 5 mg/kg; + effective at 15 mg/kg
Description: As used herein, efficacy refers to the maximal effect that can be produced by a compound. Efficacy can be determined by methods known to those of skill in the art. For example, it can be determined by the properties of the compound and its receptor-effector system and is reflected in the plateau of the concentration-effect curve. In vivo efficacy refers to efficacy which is determined in an animal model. For example, in vivo efficacy of the compounds described herein can be determined by amelioration of hypoxia-induced pulmonary hypertension in rat. In this context, in vivo efficacy refers to the ability of a compound to restore an elevated pulmonary artery pressure to a normal value. […] J. Physiol. […] The in vivo activity was measured in a pulmonary hypertension model and is a measure of the activity of the compounds at selected dosages.

Papp (Table 4) = assay type: in vitro ADME
[2] = Oral half-life and peak plasma levels in rat; assay type: in vivo
Source text: As used herein, bioavailability refers to the rate and extent of absorption. Methods for determining bioavailability are well known to those of skill in the art. For example, bioavailability of any of the compounds described herein can be determined empirically by administration of the compound to an animal, followed by taking blood samples over time and measuring the blood concentration of the compound. In vivo half life (t½) is defined as the time it takes for the concentration of the compound in the blood to be reduced by one-half. Estimations of the area under the curve for intravenous administration can be used to estimate the area under the curve for oral administration, yielding bioavailability data. See, e.q., Milo Gibal (1991) Biopharmaceutics and Pharmacology, 4th edition (Lea and Sediger).
Table 4 lists oral half-life, bioavailability, and in vivo activity of selected exemplary compounds. The in vivo activity was measured in a pulmonary hypertension model and is a measure of the activity of the compounds at selected dosages.

[3] = tested on: DOCA-salt hypertensive rat; assay: Deoxycorticosterone acetate (DOCA)-salt hypertensive rat model; assay type: in vivo
Description: E. Deoxycorticosterone Acetate (DOCA)-Salt Hypertensive Rat Model for Assessing in vivo Activity of Selected Compounds
Selected compounds disclosed herein have been tested for activity in the deoxycorticosterone acetate (DOCA)-salt hypertensive rat model. To perform these tests, silastic MDX4-4210 elastomer implants containing 47 mg (DOCA) were prepared according to the method of Ornmsbee et al. ((1973) the J. Pharm. Sci. 62:255-257). Briefly, DOCA is incorporated into silicon rubber implants for sustained release. To prepare the implants the DOCA is incorporated into unpolymerized silicone rubber, catalyst is added and the mixture is cast in a hemicylindrical shape.
Sprague Dawley rats (7-8 weeks old) were unilaterally nephrectomized under ketamine anesthesia and a DOCA-implant was placed on the left lateral dorsal abdomen of the animal. The rats were allowed to recover for three weeks. During recovery they were permitted free access to normal rat chow and 0.9% NaCl drinking solution in place of drinking water. The rats develop hypertension within 3 weeks.
All animals were used in the tests between 21 and 30 days post surgery. The mean arterial blood pressure in these animals ranged from 165-200 mm Hg.
On the day of experimentation, catheters were inserted under brevital anesthesia into the right femoral artery for measurement of blood pressure, and into the right femoral vein for administration of a selected compound. The animals were placed in a restrainer and allowed to recover for a minimum of 60 min or until a steady mean arterial blood pressure was recorded. At that time, the selected compound or control vehicle was administered either intravenously, as a 60 minute infusion, or orally by oral gavage. Blood pressure was recorded continuously for a further 10 hrs.

human ETB receptor = target: T2, human ETB receptor (Homo sapiens, UniProt P24530); assay: Binding Test #2: inhibition of 125I-ET-1 binding to ETB receptors (transfected COS7 cell membranes); details: Table 1, read-out: ETB
T2 construct: expressed in transfected cells; host or cells: COS7 cells
T2 sequence (P24530 27-442): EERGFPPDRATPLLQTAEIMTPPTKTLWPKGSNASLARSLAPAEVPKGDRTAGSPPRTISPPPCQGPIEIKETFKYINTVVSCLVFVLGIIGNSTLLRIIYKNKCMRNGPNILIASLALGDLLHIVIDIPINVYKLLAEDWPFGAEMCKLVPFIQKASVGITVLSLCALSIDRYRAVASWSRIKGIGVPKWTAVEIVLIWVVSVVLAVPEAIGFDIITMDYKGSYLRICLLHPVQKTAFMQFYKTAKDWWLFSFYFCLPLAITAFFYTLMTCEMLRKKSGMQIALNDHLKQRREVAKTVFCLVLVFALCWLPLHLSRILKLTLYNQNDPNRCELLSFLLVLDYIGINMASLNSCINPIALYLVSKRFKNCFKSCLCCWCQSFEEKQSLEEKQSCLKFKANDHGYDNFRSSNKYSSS
Procedure, shortened: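 Competition with 125I-ET-1 for binding to membranes from COS7 cells transfected with human ETB receptor, used at 1 μg/50 μl binding buffer. Membranes prepared in HEPES pH 7.4 with aprotinin, including a DNase/MnCl2 step at 37 °C for 30 min.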

[4] = tested on: ET-1-induced pressor response; assay: ET-1-induced pressor responses in conscious, autonomically blocked rats; assay type: in vivo, rat; details: in 30 min at dosages as low as 30 mg/kg
Description: Animals were placed in a restrainer and allowed to regain consciousness. Thirty minutes later autonomic blockade was administered (atropine methyl nitrate, 3 mg/kg, IV, followed by propranalol, 2 mg/kg, IV). An hour later animals received a bolus injection of vehicle (0.5 ml) followed thirty minutes later by intravenous bolus administration of ET-1 (Control, 1 μg/kg). Following recovery from this challenge, test-compounds were administered by intravenous bolus administration (0.5 ml) and then re-challenged with ET-1 thirty minutes later. Results are expressed as the percent inhibition of the ET-1-induced pressor response after administration of the test compound compared to the pressor response induced by the control ET-1 challenge. In some cases a third ET-1 challenge was administered ninety minutes after administration of the test compound.

ETB receptors = details: tissues in which ETB receptors predominate; cited from earlier work
ETA receptor = details: cited from earlier work
isolated vascular strips = details: contractile agent in isolated vascular strips; cited from earlier work
[5] = Table 1, † incubation at 24° C.

ETA/ETB selectivity (human ETA receptors; Table 3): 34000^∥
IC50 (human ETA receptors; Table 3, † incubation at 24° C.): 0.55 nM
Papp (cell printed as %) (Papp (Table 4)): 40%
Peak Plasma Levels ([2]; in vivo): 57 µg/mL
POt½ in Rat ([2]; oral): 8.6 h
Compound: CC(=O)c1cc(C)cc(C)c1NC(=O)c1sccc1S(=O)(=O)Nc1onc(C)c1Cl [N-(2-acetyl-4,6-dimethylphenyl)-3-(((4-chloro-3-methyl-5-isoxazolyl)amino)sulfonyl)-2-thiophenecarboxamide]
in vivo Efficacy (footnote e) ([1]; 0.3 mg/kg in vivo): ^eeffective at 0.3 mg/kg in vivo
in vivo Efficacy ([1]; Pulmonary Hypertension model): ++^e

IC50 (human ETA receptors; Table 1, incubation at 4° C.): 1.5 ± 1.4 nM
IC50 (human ETA receptors; [5]): 7.4 ± 1.1 nM
IC50 (human ETB receptor; incubation at 4° C.): 0.324 ± 0.78 µM
IC50 (human ETB receptor; † incubation at 24° C.): 0.939 ± 0.262 µM
Compound: Cc1noc(NS(=O)(=O)c2c(Cc3ccc4c(c3)OCO4)sc3ccccc23)c1Br [N-(4-bromo-3-methyl-5-isoxazolyl)-2-[3,4-(methylenedioxy)benzyl]benzo[b]thiophene-3-sulfonamide]
effect on blood pressure [3]: effective in decreasing blood pressure

Compound: Cc1ccc(NC(=O)c2sccc2S(=O)(=O)Nc2onc(C)c2Cl)cc1 [N-(4-chloro-3-methyl-5-isoxazolyl)-2-[(4-tolyl)aminocarbonyl]thiophene-3-sulfonamide]
effect on blood pressure [3]: effective in decreasing blood pressure

Compound: COc1cc(C#N)c(NC(=O)c2sccc2S(=O)(=O)Nc2onc(C)c2Cl)cc1OC [N-(4-chloro-3-methyl-5-isoxazolyl)-2-[{2-cyano-4,5-dimethoxyphenyl)aminocarbonyl]thiophene-3-sulfonamide]
reduction of pressure [4]: about 30%

IC50 (human ETA receptors; [5]): 53 nM
IC50 (human ETB receptor; † incubation at 24° C.): 16 µM
Compound: Cc1noc(NS(=O)(=O)c2ccsc2CC(O)c2ccc3c(c2)OCO3)c1Cl (stereo not drawn) [N-(4-chloro-3-methyl-5-isoxazolyl)-2-[β-hydroxy(3,4-methylenedioxy)phenylethyl]thiophene-3-sulfonamide]
effect on blood pressure [3]: effective in decreasing blood pressure

Compound: CC(=O)c1cc2c(cc1NC(=O)c1sccc1S(=O)(=O)Nc1onc(C)c1Cl)OCO2 [N-(4-chloro-3-methyl-5-isoxazolyl)-2-{[2-acetyl-4,5-(methylenedioxy)phenyl]aminocarbonyl}thiophene-3-sulfonamide]
IC50 (human ETA receptors; [5]): 10 nM
reduction of pressure [4]: about 30%
IC50 (human ETB receptor; † incubation at 24° C.): 31.6 µM

Compound: cyclo(D-Glu-L-Ala-allo-D-lle-L-Leu-D-Trp) [BE-18257B]
concentration up to which binding is not inhibited (ETB receptors): > 100 µM
IC50 (ETA receptor; aortic smooth muscle): 1400 nM
IC50 (ETA receptor; cultured aortic smooth muscle cells): 500 nM
IC50 (ETA receptor; ventricle membranes): 800 nM

Compound: endothelin-1: potent twenty-one amino acid peptide vasoconstrictor
EC50 (isolated vascular strips): 0.4 nM
